{"source": "the supplement of paper PMC10307832", "assay_in_all_cases": "relative viability (nuclei count vs DMSO), 5 days (fraction); higher = more cells survive", "key": {"COR-L 105": {"system": "COR-L 105", "procedure,_shortened": "(§1)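 Each reported value is a median over duplicate plates. It expresses relative viability: treated-well nuclei count divided by vehicle-well nuclei count. Lung cancer cell lines in 1536-well plates were dosed by pin tool a day after seeding, alone with one drug or with a fixed anchor-drug dose plus five library-drug doses (not always all listed) in √10 steps, and nuclei were counted after 5 days.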"}, "NCI-H1975": {"system": "NCI-H1975", "procedure,_shortened": "as §1"}, "CAL-12T": {"system": "CAL-12T", "procedure,_shortened": "as §1"}, "NCI-H1563": {"system": "NCI-H1563", "procedure,_shortened": "as §1"}, "NCI-H2405": {"system": "NCI-H2405", "procedure,_shortened": "as §1"}, "NCI-H1395": {"system": "NCI-H1395", "procedure,_shortened": "as §1"}, "HCC-15": {"system": "HCC-15", "procedure,_shortened": "as §1"}, "NCI-H1915": {"system": "NCI-H1915", "procedure,_shortened": "as §1"}, "LC-2-ad": {"system": "LC-2-ad", "procedure,_shortened": "as §1"}, "UMC-11": {"system": "UMC-11", "procedure,_shortened": "as §1"}, "NCI-H2023": {"system": "NCI-H2023", "procedure,_shortened": "as §1"}, "EPLC-272H": {"system": "EPLC-272H", "procedure,_shortened": "as §1"}, "LCLC-97TM1": {"system": "LCLC-97TM1", "procedure,_shortened": "as §1"}, "NCI-H1734": {"system": "NCI-H1734", "procedure,_shortened": "as §1"}, "NCI-H1792": {"system": "NCI-H1792", "procedure,_shortened": "as §1"}, "A-427": {"system": "A-427", "procedure,_shortened": "as §1"}, "NCI-H838": {"system": "NCI-H838", "procedure,_shortened": "as §1"}, "NCI-H2347": {"system": "NCI-H2347", "procedure,_shortened": "as §1"}, "NCI-H520": {"system": "NCI-H520", "procedure,_shortened": "as §1"}, "HCC-44": {"system": "HCC-44", "procedure,_shortened": "as §1"}, "SW 1573": {"system": "SW 1573", "procedure,_shortened": "as §1"}}, "data": [{"smiles": "CN1CCN(CCOc2cc(OC3CCOCC3)c3c(Nc4c(Cl)ccc5c4OCO5)ncnc3c2)CC1", "note": "[Saracatinib] + CS(=O)(=O)CCNCc1ccc(-c2ccc3ncnc(Nc4ccc(OCc5cccc(F)c5)c(Cl)c4)c3c2)o1 [Lapatinib] (partner 2 µM)", "values": [{"measurement": "relative viability", "setting": "COR-L 105; first compound 0.02 µM", "value": 0.389}, {"measurement": "relative viability", "setting": "COR-L 105; first compound 0.2 µM", "value": 0.281}, {"measurement": "relative viability", "setting": "COR-L 105; first compound 0.6325 µM", "value": 0.311}, {"measurement": "relative viability", "setting": "COR-L 105; first compound 2 µM", "value": 0.279}, {"measurement": "relative viability", "setting": "NCI-H1975; first compound 0.02 µM", "value": 1.03}, {"measurement": "relative viability", "setting": "NCI-H1975; first compound 0.6325 µM", "value": 0.819}, {"measurement": "relative viability", "setting": "NCI-H1975; first compound 2 µM", "value": 0.687}, {"measurement": "relative viability", "setting": "CAL-12T; first compound 0.02 µM", "value": 0.675}, {"measurement": "relative viability", "setting": "CAL-12T; first compound 0.2 µM", "value": 0.678}, {"measurement": "relative viability", "setting": "CAL-12T; first compound 0.6325 µM", "value": 0.791}, {"measurement": "relative viability", "setting": "CAL-12T; first compound 2 µM", "value": 0.555}, {"measurement": "relative viability", "setting": "NCI-H1563; first compound 0.02 µM", "value": 0.941}, {"measurement": "relative viability", "setting": "NCI-H1563; first compound 0.2 µM", "value": 0.778}, {"measurement": "relative viability", "setting": "NCI-H1563; first compound 0.6325 µM", "value": 0.831}, {"measurement": "relative viability", "setting": "NCI-H1563; first compound 2 µM", "value": 0.775}, {"measurement": "relative viability", "setting": "NCI-H2405; first compound 0.02 µM", "value": 1.03}, {"measurement": "relative viability", "setting": "NCI-H2405; first compound 0.2 µM", "value": 0.966}, {"measurement": "relative viability", "setting": "NCI-H2405; first compound 0.6325 µM", "value": 0.984}, {"measurement": "relative viability", "setting": "NCI-H2405; first compound 2 µM", "value": 0.511}, {"measurement": "relative viability", "setting": "NCI-H1395; first compound 0.02 µM", "value": 0.911}, {"measurement": "relative viability", "setting": "NCI-H1395; first compound 0.2 µM", "value": 0.921}, {"measurement": "relative viability", "setting": "NCI-H1395; first compound 0.6325 µM", "value": 0.953}, {"measurement": "relative viability", "setting": "NCI-H1395; first compound 2 µM", "value": 0.733}, {"measurement": "relative viability", "setting": "HCC-15; first compound 0.02 µM", "value": 0.859}, {"measurement": "relative viability", "setting": "HCC-15; first compound 0.2 µM", "value": 0.828}, {"measurement": "relative viability", "setting": "HCC-15; first compound 0.6325 µM", "value": 0.961}, {"measurement": "relative viability", "setting": "HCC-15; first compound 2 µM", "value": 0.854}, {"measurement": "relative viability", "setting": "NCI-H1915; first compound 0.02 µM", "value": 0.987}, {"measurement": "relative viability", "setting": "NCI-H1915; first compound 0.2 µM", "value": 0.917}, {"measurement": "relative viability", "setting": "NCI-H1915; first compound 0.6325 µM", "value": 0.955}, {"measurement": "relative viability", "setting": "NCI-H1915; first compound 2 µM", "value": 0.819}, {"measurement": "relative viability", "setting": "LC-2-ad; first compound 0.02 µM", "value": 1.06}, {"measurement": "relative viability", "setting": "LC-2-ad; first compound 0.6325 µM", "value": 0.998}, {"measurement": "relative viability", "setting": "LC-2-ad; first compound 2 µM", "value": 0.761}, {"measurement": "relative viability", "setting": "UMC-11; first compound 0.02 µM", "value": 0.931}, {"measurement": "relative viability", "setting": "UMC-11; first compound 0.2 µM", "value": 0.763}, {"measurement": "relative viability", "setting": "UMC-11; first compound 0.6325 µM", "value": 0.896}, {"measurement": "relative viability", "setting": "UMC-11; first compound 2 µM", "value": 0.78}, {"measurement": "relative viability", "setting": "NCI-H2023; first compound 0.02 µM", "value": 1.33}, {"measurement": "relative viability", "setting": "NCI-H2023; first compound 0.2 µM", "value": 0.701}, {"measurement": "relative viability", "setting": "NCI-H2023; first compound 0.6325 µM", "value": 0.998}, {"measurement": "relative viability", "setting": "NCI-H2023; first compound 2 µM", "value": 0.698}, {"measurement": "relative viability", "setting": "EPLC-272H; first compound 0.02 µM", "value": 1.01}, {"measurement": "relative viability", "setting": "EPLC-272H; first compound 0.2 µM", "value": 0.806}, {"measurement": "relative viability", "setting": "EPLC-272H; first compound 0.6325 µM", "value": 1.05}, {"measurement": "relative viability", "setting": "EPLC-272H; first compound 2 µM", "value": 0.893}, {"measurement": "relative viability", "setting": "LCLC-97TM1; first compound 0.02 µM", "value": 1.34}, {"measurement": "relative viability", "setting": "LCLC-97TM1; first compound 0.2 µM", "value": 0.771}, {"measurement": "relative viability", "setting": "LCLC-97TM1; first compound 0.6325 µM", "value": 0.861}, {"measurement": "relative viability", "setting": "LCLC-97TM1; first compound 2 µM", "value": 0.401}, {"measurement": "relative viability", "setting": "NCI-H1734; first compound 0.02 µM", "value": 1.11}, {"measurement": "relative viability", "setting": "NCI-H1734; first compound 0.6325 µM", "value": 0.999}, {"measurement": "relative viability", "setting": "NCI-H1734; first compound 2 µM", "value": 0.777}, {"measurement": "relative viability", "setting": "NCI-H1792; first compound 0.02 µM", "value": 0.968}, {"measurement": "relative viability", "setting": "NCI-H1792; first compound 0.2 µM", "value": 0.778}, {"measurement": "relative viability", "setting": "NCI-H1792; first compound 0.6325 µM", "value": 1.05}, {"measurement": "relative viability", "setting": "NCI-H1792; first compound 2 µM", "value": 0.849}, {"measurement": "relative viability", "setting": "A-427; first compound 0.02 µM", "value": 0.921}, {"measurement": "relative viability", "setting": "A-427; first compound 0.2 µM", "value": 0.877}, {"measurement": "relative viability", "setting": "A-427; first compound 0.6325 µM", "value": 1.07}, {"measurement": "relative viability", "setting": "A-427; first compound 2 µM", "value": 1.04}, {"measurement": "relative viability", "setting": "NCI-H838; first compound 0.02 µM", "value": 0.979}, {"measurement": "relative viability", "setting": "NCI-H838; first compound 0.2 µM", "value": 0.893}, {"measurement": "relative viability", "setting": "NCI-H838; first compound 0.6325 µM", "value": 0.842}, {"measurement": "relative viability", "setting": "NCI-H838; first compound 2 µM", "value": 0.655}, {"measurement": "relative viability", "setting": "NCI-H2347; first compound 0.02 µM", "value": 0.988}, {"measurement": "relative viability", "setting": "NCI-H2347; first compound 0.2 µM", "value": 0.817}, {"measurement": "relative viability", "setting": "NCI-H2347; first compound 0.6325 µM", "value": 1.12}, {"measurement": "relative viability", "setting": "NCI-H2347; first compound 2 µM", "value": 0.903}, {"measurement": "relative viability", "setting": "NCI-H520; first compound 0.02 µM", "value": 0.853}, {"measurement": "relative viability", "setting": "NCI-H520; first compound 0.2 µM", "value": 0.693}, {"measurement": "relative viability", "setting": "NCI-H520; first compound 0.6325 µM", "value": 0.708}, {"measurement": "relative viability", "setting": "NCI-H520; first compound 2 µM", "value": 0.574}, {"measurement": "relative viability", "setting": "HCC-44; first compound 0.02 µM", "value": 1.01}, {"measurement": "relative viability", "setting": "HCC-44; first compound 0.2 µM", "value": 0.902}, {"measurement": "relative viability", "setting": "HCC-44; first compound 0.6325 µM", "value": 1.17}, {"measurement": "relative viability", "setting": "HCC-44; first compound 2 µM", "value": 1.15}, {"measurement": "relative viability", "setting": "SW 1573; first compound 0.02 µM", "value": 1.27}, {"measurement": "relative viability", "setting": "SW 1573; first compound 0.2 µM", "value": 1.1}, {"measurement": "relative viability", "setting": "SW 1573; first compound 0.6325 µM", "value": 1.16}, {"measurement": "relative viability", "setting": "SW 1573; first compound 2 µM", "value": 1.14}]}]}
